These are literature values, as cited in US20250275944A1, “RELATIVE UNDERSUPPLY OF AN AMYLOID BETA AGGREGATION INHIBITOR FOR IMPROVED DETOXIFYING EFFECTS” (Galimedix Therapeutics Inc, priority 2022, published 2025).

The data set concerns the target amyloid beta Aβ1-42 (Homo sapiens, UniProt P05067). The note with it: read-out: binding affinity to amyloid beta Aβ1-42; cited from earlier work.

Chain of amyloid beta Aβ1-42 (P05067 672-713 limits assumed): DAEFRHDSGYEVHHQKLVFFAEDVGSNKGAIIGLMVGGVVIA

For `CC(C)(NC(=O)C(N)Cc1c[nH]c2ccccc12)C(=O)O` (stereo not shown) [GAL-101, 2-[2-Amino-3-(1H-indol-3-yl)-propionylamino]-2-methyl-propionic acid], the Kd was 0.0289 ± 0.0029 µM.
